US20220273751A1, “GPCR HETEROMER INHIBITORS AND USES THEREOF” (GPCR THERAPEUTICS, INC., priority 2019, published 2022)
Where a SMILES comes first, the peptide text is derived from it. Bridges are numbered along the chain shown (N, C = ends). [ ]: non-standard residue; d: D form. The star is where a group is joined. 2Nal = N[C@@H](Cc1ccc2ccccc2c1)C(=O)O; Lys(iPr) = CC(C)NCCCC[C@H](N)C(=O)O; Benzoyl(4-F) = O=C(c1ccc(F)cc1)*; Cit = NC(=O)NCCC[C@H](N)C(=O)O

Columns and labels:
CXCR4 = molecular target: T1, CXCR4 (Homo sapiens, UniProt P61073); test: Calcium mobilization assay, MDA-MB-231 cells transduced with CXCR4 only; type: cell-based
T1 construct: expressed in transfected cells; host or cells: MDA-MB-231 (adenoviral transduction)
T1 sequence (P61073 whole entry): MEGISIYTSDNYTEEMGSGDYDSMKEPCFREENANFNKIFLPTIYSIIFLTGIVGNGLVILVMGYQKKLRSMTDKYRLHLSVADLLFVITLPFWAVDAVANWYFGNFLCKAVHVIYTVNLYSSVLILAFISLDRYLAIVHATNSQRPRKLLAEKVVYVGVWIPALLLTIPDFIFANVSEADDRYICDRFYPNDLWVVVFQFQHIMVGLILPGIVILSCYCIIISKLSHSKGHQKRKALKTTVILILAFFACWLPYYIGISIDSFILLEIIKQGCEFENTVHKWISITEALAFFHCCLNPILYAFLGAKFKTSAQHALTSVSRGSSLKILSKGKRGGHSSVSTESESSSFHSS
Experimental: The next day, cells were co-transduced with 10 MOI of CXCR4 and 30 MOI of GPCRx. Adenoviruses encoding HA-VC were used to adjust the total amount of adenoviruses transduced. After 2 days, cells were treated with antagonist with indicated amounts and incubated with Cal 6 (FLIPR® Calcium 6 Assay Kit by Molecular Devices, Cat. R8191) for 2 hr. […] The results were normalized for base-line activity. […] Data represent three independent experiments (mean±SEM).

CXCR4-ADRB2 heteromer [1] = molecular target: T2, CXCR4-ADRB2 heteromer (Homo sapiens, UniProt P07550+P61073); test: Calcium mobilization assay, MDA-MB-231 cells co-transduced with CXCR4 and ADRB2; type: cell-based; conditions: for IC50: IC50 of Ca2+ response; for IC50 / decrease of IC50 of Ca2+ response upon co-administration of Carvedilol: Table 4; for decrease of IC50 of Ca2+ response upon co-administration of Carvedilol: Carvedilol 600 nM
Experimental: The next day, the cells were co-transduced with 10 MOI of CXCR4 and 30 MOI of GPCRx. […] Calcium mobilizations were measured using FlexStation 3 Multi-Mode Microplate Reader. The results were normalized for base-line activity. Calcium mobilizations were quantified by calculating the area-under-the-curve (AUC) of each graph.
MDA-MB-231 cells were transduced with adenoviruses encoding CXCR4 only, or CXCR4 and ADRB2.
Calcium mobilization was measured using FlexStation3, and the resulting IC50 values of calcium response were calculated using GraphPad Prism software.
The next day, cells were co-transduced with 10 MOI of CXCR4 and 30 MOI of GPCRx. Adenoviruses encoding HA-VC were used to adjust the total amount of adenoviruses transduced. After 2 days, cells were treated with antagonist with indicated amounts and incubated with Cal 6 (FLIPR® Calcium 6 Assay Kit by Molecular Devices, Cat. R8191) for 2 hr. […] Calcium mobilization was measured using FlexStation 3 Multi-Mode Microplate Reader (Molecular Devices, Sunnyvale, Calif., USA). The results were normalized for base-line activity. […] Data represent three independent experiments (mean±SEM).

A549-CXCR4-ADRB2 cells [2] = test: Proliferation assay (Prestoblue), A549-CXCR4-ADRB2 cells; conditions: serum free, 72 hr; for block of CXCL12 effect on cell proliferation: FIGS. 18A-18E, 10 μM (AMD070 1 μM)
Experimental: A549 parent cells or A549-CXCR4-ADRB2 cells were plated at a density of 1×10^4 cells/well in 96-well plates and incubated in culture medium for 24 hr to allow adherence. […] At the end of incubation, cell proliferation was assessed by using Prestoblue Cell Viability Reagent (Thermo Fisher Scientific) according to the manufacture's instruction.
A549 double negative (RLuc-lucP) or A549-CXCR4-ADRB2 cell lines overexpressing both CXCR4 and ADRB2 plated at a density of 1×10^4 cells/well in 96-well plates and incubated in culture medium for 24 hr to allow adherence. After washing, Serum free RPMI1640±SDF-1α with or without indicated drugs were added and the cells were incubated for 72 hr (96 hr post seeding) at 37° C., 5% CO2. At the end of incubation, cell proliferation was assessed by using Prestoblue Cell Viability Reagent (Thermo Fisher Scientific, Cat. A13262) according to the manufacture's instruction. Briefly, cells were incubated in 1× Prestoblue Cell Viability Reagent for 1 hr at 37° C. Fluorescence was measured at 560 nm excitation and 590 nm emission using Varioskan LUX multimode microplate reader (Thermo Fisher Scientific). The amount of fluorescence detected was proportional to the number of cells within a well. Results are expressed as mean ratio (FluorescenceDrug/FluorescenceVehicle only) from triplicate wells±SEM.

CXCR4-ADRB2 heteromer [3] = molecular target: T2, CXCR4-ADRB2 heteromer; test: Internalization inhibition assay, CXCR4-GFP U-2 OS cells transduced with ADRB2; conditions: FIG. 8; CXCL12 20 nM or antagonist 10 μM; 20 minutes
Experimental: To further study if co-internalization of CXCR4 heterodimer was blocked by partner GPCRx antagonists, internalization inhibition assay was performed. […] If CXCR4 formed heterodimer with GPCRx and co-internalized by partner GPCRx, it can be blocked by GPCRx specific antagonist.
Here, the GPCRx evaluated was ADRB2.

CXCR4-ADRB2 heteromer [4] = molecular target: T2, CXCR4-ADRB2 heteromer; test: Calcium mobilization assay, HL-60 cells endogenously expressing CXCR4 and ADRB2; type: cell-based; conditions: for decrease of IC50 of Ca2+ response upon co-treatment of carvedilol, HL-60: Carvedilol 10 μM
ERK1/2 [5] = test: Western blot of phospho-ERK1/2, MDA-MB-231 cell lines; type: cell-based, human; conditions: for ERK1/2 activation, single agonist: MDA-MB-231 parent, MDA-MB-231-CXCR4 and MDA-MB-231-CXCR4-ADRB2 cells, data not shown
Experimental: MDA-MB-231 cells and A549 cells, expressing Rluc-luc2P or CXCR4, or containing CXCR4-ADRB2 heteromer, were seeded in 6 well plates at a density of 5×10^5 cells per well. […] Thereafter, each of the sets of cells were harvested and performed western blotting analysis.
Cells were seeded in 6 well plates at a density of 5×10^5 cells per well. […] Thereafter, the cells were harvested using NP-40 lysis buffer (Thermo Fisher Scientific, #FNN0021) supplemented with phosphatase inhibitor cocktail (Roche, #4906845001) and protease inhibitor cocktail (Thermo Fisher Scientific, #A32953). Proteins of cell lysates concentrations were determined by the Bio-Rad protein assay (Bio-Rad, #5000006). 20 μg of protein samples were subjected to reducing SDS-PAGE and transferred to PVDF (Polyvinylidene difluoride) using dry transfer system (Thermo Fisher Scientific, #IB21001). The membranes were blocked with 5% skim milk (BD Difco, #232100) in Tris-Buffered Saline with 1% Tween-twenty for 1 hour and incubated with phospho-ERK1/2 Thr202/Tyr204 (Cell Signaling Technology, #4370) and total-ERK1/2 (Cell Signaling Technology, #4695) antibodies. Antigen-antibody complexes were detected by incubating with horseradish peroxidase coupled secondary antibodies (Cell Signaling Technology) followed by SuperSignal West Femto Maximum Sensitivity Substrate (Thermo Fisher Scientific, #34096). Western blot images were captured and analyzed by iBright Western Blot Imaging System (Thermo Fisher Scientific, #A32752).

CXCR4-ADRB2 heteromer [6] = molecular target: T2, CXCR4-ADRB2 heteromer; test: Calcium mobilization assay, U937 cells endogenously expressing CXCR4 and ADRB2; type: cell-based
ADRB2 = molecular target: T3, ADRB2 (Homo sapiens, UniProt P07550); test: Calcium mobilization assay, MDA-MB-231 cells transduced with ADRB2 only; type: cell-based; conditions: FIG. 5B; CXCL12 15 nM, salmeterol 100 nM
T3 construct: expressed in transfected cells; host or cells: MDA-MB-231 (adenoviral transduction)

[7] = test system: MDA-MB-231-CXCR4-ADRB2 cells; test: MDA-MB-231-CXCR4-ADRB2 orthotopic xenograft, tumor growth; type: in vivo, mouse; conditions: FIG. 22C; for suppression of tumor growth, single administration: once a day for 4 weeks
Experimental: The size of the tumors was calculated by converting the tumor size to 100 on the first day of drug administration (% tumor growth). […] Place the needle point in the pre-administration site (between the nipple 2 and 3) and move it to the right or left to make a wide subcutaneous pocket. The Matrigel Mixture (matrigel: cell suspension=50:50) is injected into the subcutaneous pocket. The animals are placed in a breeding box after confirming that the liquid is not spilled at the injection site. […] The day of drug treatment is defined as Day 1. […] The size of the tumor was calculated by converting the tumor size to 100 on the first day of drug administration.

ERK1/2 [8] = test: Western blot of phospho-ERK1/2, A549 cell lines; type: cell-based, human; conditions: A549-CXCR4-ADRB2 cells; 10 nM each; 10 minutes
Experimental: Cells were seeded in 6 well plates at a density of 5×10^5 cells per well. […] Proteins of cell lysates concentrations were determined by the Bio-Rad protein assay (Bio-Rad, #5000006). 20 μg of protein samples were subjected to reducing SDS-PAGE and transferred to PVDF (Polyvinylidene difluoride) using dry transfer system (Thermo Fisher Scientific, #IB21001). […] Western blot images were captured and analyzed by iBright Western Blot Imaging System (Thermo Fisher Scientific, #A32752).

A549-CXCR4-ADRB2 cells [9] = test: A549-CXCR4-ADRB2 xenograft, tumor growth; type: in vivo, mouse; conditions: 10 mpk; in only 2 doses
Experimental: The antitumor effect in mice transplanted with A549 cells containing CXCR4-ADRB2 by stably overexpressing both CXCR4 and ADRB2 (“A549-CXCR4-ADRB2 cells”) was evaluated using CXCR4 inhibitors currently under development or on the market. A549-CXCR4-ADRB2 cells (1×10^7 cell/head) were injected subcutaneously in nude mice. […]. The CXCR4 inhibitors were administered once a day for 4 weeks.
Five week-old, female Balb/c-nu/nu mice were obtained from Envigo (France) and maintained in specific pathogen-free animal facility. All protocols for animal use and euthanasia were approved by the Qubest Bio (South Korea) Animal Experimental Ethics Committee based on the Animal Protection Act. […] The tumor growth was monitored every third or fourth day by measuring the length (L) and width (W) of the tumor with an electronic caliper and calculating tumor volume in the basis of the following formula: Volume=0.5 LW^2.
For the antitumor efficacy test using CXCR4 inhibitors, A549-CXCR4-ADRB2 cell line overexpressing CXCR4 and ADRB2 in A549, lung cancer cell line was subcutaneously administered (1×10^7 cell in 100 μL PBS/head) to BALB/c-nu. […] The tumor growth was monitored every third or fourth day by measuring the length (L) and width (W) of the tumor: Volume=0.5 LW^2.

[10] = test system: patient derived cells (PDCs) from glioblastoma; test: Survival of patient derived cells (ATPlite); type: cell-based, human; conditions: PDC expressing CXCR4 and ADRB2; 7 days
Experimental: Single cell suspensions of resected and dissociated glioblastoma tissues from patients were prepared (provided by Samsung Seoul hospital in Seoul, Korea). These cells were cultured under conditions optimal for propagation and non-differentiation of normal neuronal stem cell. Media were composed serum free Neurobasal media supplemented with basic FGF and EGF.
The effects of GPCRx antagonist on the survival of patient derived cells (PDCs) were assessed using ATPlite (PerkinElmer, Cat. No. 6016739 reagent). ATPlite is an Adenosine Triphospate monitoring system based on firefly luciferase. This luminescence assay is the alternative to colorimetric, fluorometric and radioisotopic assays for the quantitative evaluation of proliferation and cytotoxicity of cultured mammalian cells. Cells were seeded in 384-well plate at 500 cells/well in 40 μL culture media. After overnight growth, the cells were cultured for 7 days in the presence of several dose of GPCRx antagonist or DMSO alone. After a 7-day incubation, 15 μL ATPlite was added into the each well and the plate were shaken for 5 minutes in an orbital shaker at 700 rpm. The luminescent signal was detected within 30 minutes at PerkinElmer TopCount detection instrument. The cell viability was calculated using the equation: Cell viability (%)=(OD of antagonist treatment/OD of DMSO only treatment)×100%.

N=C(N)NCCC[C@H](NC(=O)[C@@H]1CSSC[C@H](NC(=O)[C@H](Cc2ccc3ccccc3c2)NC(=O)[C@H](CCCNC(=N)N)NC(=O)[C@H](CCCNC(=N)N)NC(=O)c2ccc(F)cc2)C(=O)N[C@@H](Cc2ccc(O)cc2)C(=O)N[C@@H](CCCNC(N)=O)C(=O)N[C@@H](CCCCN)C(=O)N[C@H](CCCCN)C(=O)N2CCC[C@H]2C(=O)N[C@@H](Cc2ccc(O)cc2)C(=O)N[C@@H](CCCNC(=N)N)C(=O)N[C@@H](CCCNC(N)=O)C(=O)N1)C(N)=O [BKT140] ({Benzoyl(4-F)}-RR[2Nal]CY[Cit]K[dK]PYR[Cit]CR-NH2; disulfide 4-13)
IC50 (CXCR4; Table 4, cells expressing CXCR4 alone, CXCR4 inhibitor only, read-out: IC50 of Ca2+ response, CXCR4): 579 ± 204 nM | IC50 (CXCR4-ADRB2 heteromer [1]; CXCR4 + ADRB2 (+Carvedilol 600 nM), co-treated with Carvedilol 600 nM (its IC90)): 1.94 nM | IC50 (CXCR4-ADRB2 heteromer [1]; CXCR4 + ADRB2 (−Carvedilol 600 nM), CXCR4 inhibitor only): 88.7 nM | decrease of IC50 of Ca2+ response upon co-administration of Carvedilol (CXCR4-ADRB2 heteromer [1]): about 45.7 fold | block of CXCL12 effect on cell proliferation (A549-CXCR4-ADRB2 cells [2]): blocked the CXCL12 effect

CXCL12: C-X-C Motif Chemokine ligand 12, CXCR4 agonist
internalization of CXCR4-GFP with ADRB2, substance alone (CXCR4-ADRB2 heteromer [3]): induced internalization of CXCR4-GFP with ADRB2 | calcium response, single agonist, HL-60 (CXCR4-ADRB2 heteromer [4]; FIG. 26B, CXCL12 200 nM, formoterol 10 μM): evoked an intercellular calcium mobilization | calcium response, single agonist, cells expressing CXCR4 (CXCR4; FIG. 5A, CXCL12 15 nM, salmeterol 100 nM): evoked intracellular calcium mobilization | EC50 (CXCR4; read-out: EC50 concentration against CXCR4): ~15 nM | increase of cell proliferation rate (A549-CXCR4-ADRB2 cells [2]; CXCL12 100 nM): about 20% | ERK1/2 activation, single agonist (ERK1/2 [5]): induced activation of ERK1/2 after 10 minutes | calcium response, single agonist, U937 (CXCR4-ADRB2 heteromer [6]; FIG. 26A, CXCL12 200 nM, formoterol 10 μM): evoked an intercellular calcium mobilization | calcium response, single agonist, cells overexpressing ADRB2 alone (ADRB2): did not induced calcium response

NCCCCN(Cc1nc2ccccc2[nH]1)[C@H]1CCCc2cccnc21 [AMD070]
decrease of IC50 of Ca2+ response upon co-treatment of carvedilol, HL-60 (CXCR4-ADRB2 heteromer [4]): about 12.7 fold | inhibition of tumor growth, co-administration with Carvedilol ([7]; AMD070 3 or 10 mg/kg with Carvedilol 30 mg/kg): effectively inhibited the growth of the tumor | suppression of tumor growth, single administration [7]: limited suppression of tumor growth | block of CXCL12 effect on cell proliferation (A549-CXCR4-ADRB2 cells [2]): blocked the CXCL12 effect

OCc1cc(C(O)CNCCCCCCOCCCCc2ccccc2)ccc1O (centres unmarked) [salmeterol, Salmeterol]
ERK1/2 phosphorylation, co-stimulation with CXCL12 and salmeterol (ERK1/2 [8]): significantly activated | ERK1/2 activation, co-stimulation with CXCL12 and salmeterol (ERK1/2 [5]; MDA-MB-231-CXCR4-ADRB2 cells, 10 nM each, 20 minutes): synergistically increased | ERK1/2 activation, single agonist (ERK1/2 [5]): induced ERK activation after 20 minutes

CC(C)NCCCC[C@H](NC(=O)[C@H]1CCC(=O)N[C@@H](Cc2ccccc2)C(=O)N[C@@H](Cc2ccc(O)cc2)C(=O)N[C@@H](CCCCNC(C)C)C(=O)N[C@H](CCCNC(=N)N)C(=O)N[C@@H](Cc2ccc3ccccc3c2)C(=O)NCC(=O)N1)C(N)=O [LY2510924] (FY[Lys(iPr)][dR][2Nal]G[dE][Lys(iPr)]-NH2; lactam N-7)
block of CXCL12 effect on cell proliferation (A549-CXCR4-ADRB2 cells [2]): blocked the CXCL12 effect | death of mice (A549-CXCR4-ADRB2 cells [9]): 3 out of 10

COc1ccccc1OCCNCC(O)COc1cccc2[nH]c3ccccc3c12 (centres unmarked) [Carvedilol]
suppression of tumor growth, single administration [7]: limited suppression of tumor growth | IC50 [10]: 11700 nM

c1cc(CN2CCCNCCNCCCNCC2)ccc1CN1CCCNCCNCCCNCC1 [AMD3100, plerixafor]
decrease of IC50 of Ca2+ response upon co-treatment of carvedilol, HL-60 (CXCR4-ADRB2 heteromer [4]): about 4.4 fold | suppression of enhanced calcium signaling, co-administration with carvedilol (CXCR4-ADRB2 heteromer [1]; FIG. 6, AMD3100 10 μM with carvedilol 10 μM): greater suppression of the calcium signaling | decrease of IC50 of Ca2+ response upon co-administration of Carvedilol (CXCR4-ADRB2 heteromer [1]): about 10.5 fold | block of CXCL12 effect on cell proliferation (A549-CXCR4-ADRB2 cells [2]): blocked the CXCL12 effect | decrease of IC50 of Ca2+ response upon co-treatment of carvedilol, U937 (CXCR4-ADRB2 heteromer [6]; Carvedilol 10 μM): about 6.4 fold
